Test results published in article PMC4912077 (PLoS ONE, 2016).
“Also recorded” adds a separate entry of the source. Like-named read-outs stand apart in the source and are kept apart here.

What was measured:
[1] = target: H1 (Homo sapiens, UniProt P35367); test: NIMH PDSP radioligand binding, H1
Experimental: (§1) Radioligands and concentrations used for additional 45 CNS receptor binding assays are listed as supporting information (S1 Table). This work was performed by the National Institute of Mental Health Psychoactive Drug Screening Program (NIMH PDSP) as described previously.[26] Briefly target compounds were dissolved in DMSO and subjected to a primary screen at 10,000 nM concentration. […] Additional experimental details are available in the NIMH PDSP assay protocol book.

[2] = target: KOR (Homo sapiens, UniProt P41145); test: NIMH PDSP radioligand binding, KOR
Experimental: as §1

[3] = target: M5 (Homo sapiens, UniProt P08912); test: NIMH PDSP radioligand binding, M5
[4] = target: T1, DAT (Homo sapiens, UniProt Q01959); test: NIMH PDSP radioligand binding, DAT
Experimental: as §1

[5] = target: T2, Sigma 2 (Rattus norvegicus, UniProt Q5U3Y7); test: NIMH PDSP radioligand binding, Sigma 2
T2 sequence (Q5U3Y7 1-176): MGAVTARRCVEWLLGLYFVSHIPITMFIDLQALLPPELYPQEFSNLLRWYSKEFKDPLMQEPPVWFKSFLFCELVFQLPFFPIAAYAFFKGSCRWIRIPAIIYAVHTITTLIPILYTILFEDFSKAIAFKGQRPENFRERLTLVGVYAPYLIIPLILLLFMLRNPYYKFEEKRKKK
Experimental: as §1

[6] = target: T3, Human SERT (Homo sapiens, UniProt P31645); test: Monoamine reuptake inhibition assay, SERT in HEK293 cells; format: cell-based
T3 construct: expressed in transfected cells; host or cells: HEK293
Experimental: (§2) Monoamine reuptake inhibition assays were performed via the NIMH PDSP as previously described.[28] In brief, the neurotransmitter transporter uptake assay kit (R8174) (Molecular Devices) was used. Human monoamine transporters (DAT, NET and SERT) were stably expressed in HEK293 cells. Assay buffer consisted of 20 mM HEPES, 1x HBSS at pH 7.4. Cells were plated in Pol-L-Lys (PLL) coated 384-well black clear bottom cell culture plates with a density of 15,000 cells/well. Cells were incubated for at least 6 h prior to assay. Media was removed and replaced with 20 μL assay buffer and 5 μL of drug or positive control (cocaine or nisoxetine) as a 5X stock. Cells were incubated for 30 min at 37°C. 25 μL of dye solution was then added and following an additional 30 min incubation (at 37°C) fluorescence intensity was measured using a FlexStation II (bottom read mode, excitation wavelength = […], emission = 520 nM with a cutoff of 510 nM). […] Additional details are available in the NIMH PDSP assay protocol book.

[7] = test system: Sprague–Dawley rats; test: Pre-pulse inhibition (PPI) of acoustic startle in rats; format: in vivo, rat; details: for ED50: sc, rat, subcutaneous, read-out: ED50 for reduction of average PPI
Experimental: (§3) Male Sprague–Dawley rats from Harlan Industries (Indianapolis, IN, USA; initial weight 250–275 g) were housed in pairs under a 12-h reverse light/dark cycle (lights off at 0700 h). Use of a reversed light/dark cycle allows behavioral testing to be conducted during the awake phase of the light/dark cycle. Food and water were available ad libitum. Animals were acclimatized for approximately 1 wk after arrival prior to behavioral testing and maintained in Association for Assessment and Accreditation of Laboratory Animal Care (AAALAC)-approved facilities that meet all federal and state guidelines. Procedures were approved by the University of California San Diego institutional animal care and use committee. Principles of laboratory animal care were followed.
DPH hydrochloride and 2-MXP hydrochloride were dissolved in water containing 5% Tween-80 and administered subcutaneously, 10-min prior to the start of the startle test session. The injection volume was 1 ml/kg.
Eight startle chambers (SR-LAB system, San Diego Instruments, San Diego, CA, USA) were used to measure startle reactivity in rats. The startle test chambers were sound-attenuated, lighted, and ventilated enclosures containing a clear nonrestrictive cylindrical Plexiglas stabilimeter, 8.2 cm in diameter. A high-frequency loudspeaker mounted 24 cm above the Plexiglas cylinder produced all acoustic stimuli. The peak and average amplitudes of the startle response were detected by a piezoelectric accelerometer. At the onset of the startling stimulus, 100 1-ms readings were recorded, and the average amplitude was used to determine the magnitude of the startle response (measured in arbitrary units).
Acoustic startle test sessions consisted of startle trials (pulse-alone) and prepulse trials (prepulse + pulse). The pulse-alone trial consisted of a 40-ms 120-dB pulse of broadband white noise. Prepulse + pulse trials consisted of a 20-ms acoustic prepulse, an 80-ms delay, and then a 40-ms 120-dB startle pulse (100-ms onset–onset). There was an average of 15 s (range = 6–22 s) between trials. During each inter-trial interval, the movements of the animals were recorded once to measure response when no stimulus was present (data not shown). Each startle session began with a 5 min acclimation period to a 65-dB broadband noise that was present continuously throughout the session. One week after arrival, animals were tested in a brief baseline startle/PPI session to create treatment groups matched for levels of startle and PPI. The startle test session contained 12 pulse-alone trials and 36 prepulse + pulse trials (12 prepulses each of 68-, 71-, and 77-dB [equivalent to 3-, 6-, and 12-dB above background]) presented in a pseudo-randomized order. Six pulse-alone trials were presented at the beginning and the end of the test session but were not used in the calculation of PPI values. Raw data for all PPI experiments are provided as supporting information (S5 File).
The amount of PPI was calculated as a percentage score for each prepulse + pulse trial type: %PPI = 100−{[(startle response for prepulse + pulse trial)/(startle response for pulse-alone trial)] × 100}. Startle magnitude was calculated as the average response to all of the pulse-alone trials. PPI data were analyzed with two-factor analysis of variance (ANOVA) with treatment as the between-subjects factor and trial type (prepulse intensity) as a repeated measure. For experiments in which there was no significant interaction between drug and prepulse intensity, PPI data were collapsed across prepulse intensity and average PPI was used as the main dependent measure. ED50 values were calculated using nonlinear regression. Startle magnitude data were analyzed with one-factor ANOVA. Post-hoc analyses were performed using Tukey’s studentized range method. The alpha level was set at 0.05.

[8] = test system: Sprague–Dawley rats; test: Acoustic startle response (ASR) magnitude in rats; format: in vivo, rat
Experimental: as §3, with “Principles of laboratory animal care were followed.” left out
Eight startle chambers (SR-LAB system, San Diego Instruments, San Diego, CA, USA) were used to measure startle reactivity in rats. […] The peak and average amplitudes of the startle response were detected by a piezoelectric accelerometer. At the onset of the startling stimulus, 100 1-ms readings were recorded, and the average amplitude was used to determine the magnitude of the startle response (measured in arbitrary units).
Acoustic startle test sessions consisted of startle trials (pulse-alone) and prepulse trials (prepulse + pulse). […] During each inter-trial interval, the movements of the animals were recorded once to measure response when no stimulus was present (data not shown). […]

[9] = test system: PCP site within the NMDAR channel;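 note: IC50 by nonlinear regression of percent specific binding versus log concentration, Ki from IC50 via Cheng-Prusoff, raw counts in CPM, duplicates repeated at least three times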
Experimental: (§4) The reaction was terminated by vacuum filtration using a 24 well cell harvester (Brandel, Gaithersburg, MD) over presoaked GF/B glass fiber filters (Brandel, Gaithersburg, MD). Filters were washed with room temperature assay buffer (3 x 5 mL). […] IC50 values were determined in Graphpad Prism 5.0 using non-linear regression with log-concentration plotted against percent specific binding. […] Ki values were calculated using the equation of Cheng and Prusoff [24]. […] Protein concentration was determined via the Bradford method using Coomassie protein assay reagent (Sigma, USA) [25] with rat albumin (Sigma, USA) as standard. Experiments were performed in duplicate and repeated a minimum of three times.

[10] = target: T1, DAT; test: Monoamine reuptake inhibition assay, DAT in HEK293 cells; format: cell-based; parameters: expressed in transfected cells; host or cells: HEK293; details: for Hill slope DAT reuptake inhibition: HEK293 cells
Experimental: as §2

[11] = target: PCP site within the NMDAR channel; test: NMDAR binding, [3H]-MK-801 displacement in rat forebrain homogenate; details: for Ki: read-out: Ki ± SEM, [3H]-(+)-MK-801, rat forebrain, Cheng-Prusoff;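 for all read-outs here: IC50 by nonlinear regression of percent specific binding versus log concentration, Ki from IC50 via Cheng-Prusoff, raw counts in CPM, duplicates repeated at least three times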
Experimental: as §4

T1 sequence (Q01959 whole entry): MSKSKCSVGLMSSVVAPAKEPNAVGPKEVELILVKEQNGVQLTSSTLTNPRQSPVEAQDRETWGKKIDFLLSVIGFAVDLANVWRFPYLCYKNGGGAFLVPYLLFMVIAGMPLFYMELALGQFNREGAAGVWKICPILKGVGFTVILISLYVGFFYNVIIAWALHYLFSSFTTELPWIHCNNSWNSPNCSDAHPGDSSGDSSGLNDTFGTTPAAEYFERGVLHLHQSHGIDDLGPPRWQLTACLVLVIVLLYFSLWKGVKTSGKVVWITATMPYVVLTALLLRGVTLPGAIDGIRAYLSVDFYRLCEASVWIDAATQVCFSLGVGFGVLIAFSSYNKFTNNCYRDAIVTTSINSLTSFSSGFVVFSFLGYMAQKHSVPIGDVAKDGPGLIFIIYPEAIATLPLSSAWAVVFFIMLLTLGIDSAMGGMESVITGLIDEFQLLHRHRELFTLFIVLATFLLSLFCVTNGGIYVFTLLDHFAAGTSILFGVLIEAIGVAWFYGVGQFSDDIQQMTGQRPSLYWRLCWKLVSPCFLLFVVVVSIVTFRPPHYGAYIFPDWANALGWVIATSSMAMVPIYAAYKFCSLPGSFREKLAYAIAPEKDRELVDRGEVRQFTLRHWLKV
Chain of KOR (P41145 whole entry): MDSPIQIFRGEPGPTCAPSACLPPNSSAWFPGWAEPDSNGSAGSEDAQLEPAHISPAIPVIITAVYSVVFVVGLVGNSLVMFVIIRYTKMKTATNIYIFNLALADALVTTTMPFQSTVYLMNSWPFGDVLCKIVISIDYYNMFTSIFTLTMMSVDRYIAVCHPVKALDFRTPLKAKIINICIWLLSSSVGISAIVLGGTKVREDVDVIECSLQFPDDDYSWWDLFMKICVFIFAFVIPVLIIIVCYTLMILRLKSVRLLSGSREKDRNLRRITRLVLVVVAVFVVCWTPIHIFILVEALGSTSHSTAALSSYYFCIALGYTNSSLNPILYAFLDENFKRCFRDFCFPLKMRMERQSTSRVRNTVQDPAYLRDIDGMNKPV
T3 sequence (P31645 whole entry): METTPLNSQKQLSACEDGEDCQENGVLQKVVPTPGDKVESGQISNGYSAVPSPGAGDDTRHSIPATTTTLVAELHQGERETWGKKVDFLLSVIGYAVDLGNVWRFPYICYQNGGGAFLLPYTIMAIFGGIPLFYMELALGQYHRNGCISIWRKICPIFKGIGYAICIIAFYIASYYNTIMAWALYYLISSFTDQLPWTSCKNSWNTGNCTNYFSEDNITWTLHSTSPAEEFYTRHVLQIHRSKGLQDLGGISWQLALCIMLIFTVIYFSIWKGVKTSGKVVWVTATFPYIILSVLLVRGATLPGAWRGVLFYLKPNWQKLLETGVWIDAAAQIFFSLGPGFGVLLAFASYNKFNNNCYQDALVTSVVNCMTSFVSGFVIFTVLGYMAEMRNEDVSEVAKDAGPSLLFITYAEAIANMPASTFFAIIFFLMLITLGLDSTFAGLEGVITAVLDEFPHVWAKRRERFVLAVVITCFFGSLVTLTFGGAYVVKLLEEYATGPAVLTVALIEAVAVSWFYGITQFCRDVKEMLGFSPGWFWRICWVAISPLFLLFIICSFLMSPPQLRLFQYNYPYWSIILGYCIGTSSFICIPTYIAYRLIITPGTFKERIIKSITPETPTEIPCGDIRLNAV
Chain of M5 (P08912 whole entry): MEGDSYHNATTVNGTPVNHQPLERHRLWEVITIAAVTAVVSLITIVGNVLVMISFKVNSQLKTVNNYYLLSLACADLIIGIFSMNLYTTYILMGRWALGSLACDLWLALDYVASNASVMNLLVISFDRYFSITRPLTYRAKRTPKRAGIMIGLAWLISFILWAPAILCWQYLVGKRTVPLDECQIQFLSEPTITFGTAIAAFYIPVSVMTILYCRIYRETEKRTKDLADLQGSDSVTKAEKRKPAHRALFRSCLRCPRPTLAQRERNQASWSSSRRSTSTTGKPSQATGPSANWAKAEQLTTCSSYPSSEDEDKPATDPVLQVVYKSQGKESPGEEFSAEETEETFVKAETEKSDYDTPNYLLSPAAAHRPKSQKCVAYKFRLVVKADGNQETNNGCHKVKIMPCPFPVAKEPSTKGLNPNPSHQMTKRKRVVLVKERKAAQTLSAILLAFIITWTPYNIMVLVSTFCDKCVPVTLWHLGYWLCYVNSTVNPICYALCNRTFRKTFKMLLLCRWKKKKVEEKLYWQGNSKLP
Chain of H1 (P35367 whole entry): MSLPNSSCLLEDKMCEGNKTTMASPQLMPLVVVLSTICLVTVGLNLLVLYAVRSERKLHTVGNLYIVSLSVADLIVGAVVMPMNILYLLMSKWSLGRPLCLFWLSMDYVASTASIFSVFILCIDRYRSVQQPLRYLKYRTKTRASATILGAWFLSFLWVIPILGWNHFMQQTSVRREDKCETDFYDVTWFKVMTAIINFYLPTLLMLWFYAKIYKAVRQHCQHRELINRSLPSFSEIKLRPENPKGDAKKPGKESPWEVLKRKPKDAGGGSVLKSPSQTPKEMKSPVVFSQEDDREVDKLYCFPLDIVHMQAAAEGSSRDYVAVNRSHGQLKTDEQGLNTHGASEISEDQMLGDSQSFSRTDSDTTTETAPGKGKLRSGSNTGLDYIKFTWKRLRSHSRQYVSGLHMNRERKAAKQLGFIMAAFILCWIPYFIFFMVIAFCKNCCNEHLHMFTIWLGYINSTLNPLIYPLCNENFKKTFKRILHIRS

SMILES | Ki [1] | Ki [2] | Ki [3] | Ki [4] | Ki [5] | IC50 [6] | effect on PPI ([7]; 20 mg/kg s.c.) | effect on PPI ([7]; doses up to 10 mg/kg s.c.) | acoustic startle response (ASR) magnitude ([8]; 20 mg/kg s.c., vehicle 175.9 ± 29.2) | IC50 [9] | IC50 [10] | Hill slope DAT reuptake inhibition [10] | Ki [11] | effect on average PPI ([7]; 10 mg/kg s.c., first dose-response experiment) | effect on PPI ([7]; 10, 20 and 30 mg/kg s.c., second experiment) | ED50 ([7]; 10 min before test) | ED50 ([7]; 95% CI in parentheses) | effect on magnitude of the ASR ([8]; 1.25–30 mg/kg s.c., both experiments) | NMDAR affinity relative to ketamine ([11]; higher affinity)
COc1ccccc1C(Cc1ccccc1)N1CCCCC1 (centres unmarked) [2-MXP, 2-methoxydiphenidine] | 533 nM | 1690 nM | 1530 nM | 2910 nM | 508 nM | > 10000 nM | did disrupt PPI; also recorded: significant inhibition of PPI | did not alter PPI | 78.8 ± 11.9 arbitrary units | 56.5 ± 5.8 nM | 30000 nM | 0.81 | 36 ± 3.7 nM |  |  |  |  |  | 
c1ccc(CC(c2ccccc2)N2CCCCC2)cc1 (centres unmarked) [DPH, diphenidine] | 1340 nM | 3900 nM | 1650 nM | 317 nM | 193 nM | > 10000 nM |  |  |  | 28.6 ± 3.5 nM | 1990 nM | 0.91 | 18.2 ± 2.2 nM | significantly reduced average PPI | reduced PPI at all three prepulse intensities | 9.5 mg/kg | 31.5 µmol/kg | did not alter the magnitude of the ASR | ~ 18 fold
